Measurements as given in US10725042B2, “Methods of diagnosing and treating cancer” (Case Western Reserve University, priority 2012, dated 2020).

Tests used:
DLD1/UDG−/− cells = test: Colony survival (clonogenic) assay, UDG−/− cells; format: cell-based, human
Procedure: Recombinant virus was grown in 293T cells and subsequently used to infect DLD1 cells. Selection of positively transfected clones was achieved by the addition of G418 to the culture medium. A second infection of transfected clones with Cre-recombinase adenovirus caused excision of the neomycin resistance cassette. Dflag cell line was produced by transfection of UDG expression vector in UDG^−/− cells to restore UDG activity.
(§1) Tumor cells (500-2000/dish) were plated and treated with pemetrexed (0-400 nM), 5-fluorouracil (0-20 μM), temozolomide (0-1500 μM), or cisplatin (0-40 μM). After 7 days, surviving colonies were stained with methylene blue for 30 min at room temperature and the colonies containing more than 50 cells were counted to generate survival curves.

A549 cells = test: Clonogenic survival assay, A549 cells (Example 1); format: cell-based; conditions: Homo sapiens, read-out: IC50 values for pemetrexed
Procedure: as §1

A549 parental cells = test: Colony survival assay, A549 parental cells (Example 2); format: cell-based; conditions: Homo sapiens, read-out: pemetrexed IC50
Procedure: (§2) For cells in suspension, colony survival was determined by crystal violet staining of colonies formed after 10-day exposure of 5×10^3 cells to pemetrexed in soft agar. For adherent cells, colony survival was determined by methylene blue staining of colonies formed after 10-day exposure of 100 cells to pemetrexed in 6-well culture dishes. Only colonies containing ≥50 cells were counted. Data points represent percent of colonies relative to untreated control averaged over 3 experiments.

H1975 66 shUNG cells = test: Colony survival assay, H1975 66 shUNG cells; format: cell-based, human
Procedure: as §2
(§3) UNG directed shRNA and siRNA plasmids were purchased from Origene. Transfection was carried out according to manufacturer specifications. Stably transfected clones (shRNA) were selected with puromycin with subsequent expansion of a well-isolated colony of cells.

H1975 67 shUNG cells = test: Colony survival assay, H1975 67 shUNG cells; format: cell-based; conditions: Homo sapiens, NCI-H1975, read-out: pemetrexed IC50
Procedure: as §2, §3

H1975 shUNG cells = test: PCNA dissociation by bi-parametric flow cytometry, H1975 shUNG cells; format: cell-based, human; conditions: 25 nM pemetrexed
Procedure: (§4) Propidium iodine (PI) staining of methanol fixed cells was for cell cycle determinations. Where indicated, FITC labeled PCNA antibody (PCNA-FITC, Abcam) was added for PCNA detection. Uni-parameter (PI-only) and dual-parameter (PI+PCNA-FITC) analysis was performed on a Coulter flow cytometer (EPICS-XL-MCL). Cell cycle histograms (PI) and PCNA dot plots (PCNA-FITC) were de-convoluted from ≥20,000 events using FlowJo software.
(§5) Prolonged S-phase arrest is known to result in DNA DSB formation due to the collapse of stalled replication forks. We evaluated the stability of the DNA replication fork in pemetrexed treated lung cancer cells with native and reduced levels of UNG protein. Nucleotide incorporation experiments using CldU and IdU indicate decreased postpemetrexed treatment nucleotide incorporation (data not shown). […] Using bi-parametric flow cytometry we measured the dissociation of the replication fork processivity factor, PCNA at the single cell level in H1975 cells expressing UNG directed shRNA. Similar assays have been utilized to detect replication fork disassembly following etoposide and hydroxyurea exposure. PCNA dissociation was determined by the percentage of cells in S phase having low PCNA (red box, FIG. 11d). […] As a complimentary experiment, we examined the expression of chromatin-bound PCNA after pemetrexed treatment by western blot of chromatin cellular extracts.

H1975 wild type cells = test: PCNA dissociation by bi-parametric flow cytometry, H1975 wild type cells; format: cell-based, human; conditions: treated samples
Procedure: as §4, §5

H1299/PR-1 cells = test: Colony survival assay, H1299/PR-1 pemetrexed-resistant subline; format: cell-based, human; conditions: PR-1 vs H1299 parental, colony survival
Procedure: as §2
(§6) H1299 cells were exposed to step-wise increasing concentrations of pemetrexed over a period of 4 months. UNG expression was monitored in the bulk population at 2, 8, 12 and 16 weeks prior to administration of the induction dosage and at 24 weeks in a population of bulk chronically exposed cells that had been without pemetrexed for 8 weeks. H1299 cells capable of growth in 50 nM pemetrexed selection pressure were subcloned by limiting dilution in 96 well plates. Independent sublines were designated H1299/PR-1 and H1299/PR-2.

H1299/PR-2 cells = test: Colony survival assay, H1299/PR-2 pemetrexed-resistant subline; format: cell-based, human; conditions: PR-2 vs H1299 parental
Procedure: as §2, §6

[1] = test system: uracil in DNA of UDG−/− cells; test: Uracil in DNA by HPLC/MS/MS, UDG−/− cells; format: cell-based, human
Procedure: UDG^−/− and UDG^+/+ cells were exposed to pemetrexed (10 μM) or 5-fluorouracil (10 μM) for 6, 24, 48 and 72 hrs. At indicated time points, cells were harvested and genomic DNA was extracted by phenol/chloroform. Forty μg of DNA were incubated with 10 U of purified UDG (New England Biolabs) in 60 μL of reaction buffer at 37° C. for 2 hrs. The reaction products were dried at 35° C. in a Turbovap under a stream of nitrogen and reconstituted in 150 μL 90% acetonitrile. The analyte was retained by an Atlantis Hilis Silica analytical column (2.1×100 mm, 3.5 μM) and eluted isocratically by a mixture of 90% acetonitrile and 10% 2.0 mM ammonium formate at a flow rate of 0.2 ml/min. The detection was done by an API 3200 MS/MS mass spectrometer.

[2] = test system: AP sites in DNA of UDG+/+ cells; test: AP site assay (ARP), UDG+/+ cells; format: cell-based, human; conditions: pemetrexed 0-400 nM, 24 hrs
Procedure: (§7) The number of AP sites was measured using ARP (aldehyde reactive probe) reagent. The assay was performed as previously described. Briefly, cells (2×10^6) were collected after drug treatment and DNA was extracted. DNA (10 μg) was incubated with 15 μl of 1 mM ARP (Dojindo Laboratories, Kumamoto, Japan), and then precipitated and washed with ice-cold ethanol. The ARP-labeled DNA was then heat-denatured at 100° C. for 5 min, quickly chilled on ice and mixed with an equal volume of 2 M ammonium acetate. The DNA was then immobilized on a BA-S 85 nitrocellulose membrane (Schleicher and Schuell, Dassel, Germany) using a minifold II vacuum filter device (Schleicher and Schuell, Dassel, Germany). The membrane was incubated with 0.25% BSA-PBS containing streptavidin-conjugated horseradish peroxidase (BioGenex, SanRamon, Calif.) at room temperature for 40 min with gentle shaking. ARP-labeled AP sites were visualized by chemiluminescence (Amersham Corp, Piscataway, N.J.) followed by quantitative densitometry using NIH Image J software.

[3] = test system: AP sites in DNA of H460 cells; test: AP site assay (ARP), H460 cells; format: cell-based, human; conditions: pemetrexed 0-400 nM, MX 6 mM, 24 hrs
Procedure: as §7

Nc1nc2[nH]cc(CCc3ccc(C(=O)N[C@@H](CCC(=O)O)C(=O)O)cc3)c2c(=O)[nH]1 [pemetrexed]
IC50 (DLD1/UDG−/− cells; Homo sapiens, DLD-1, UDG−/− cells, interpolated from dose-response survival curves, read-out: IC50 value for pemetrexed): 20 nM
sensitivity of UDG−/− cells relative to UDG+/+ cells (DLD1/UDG−/− cells; UDG−/− vs UDG+/+): 10 times
IC50 (A549 cells): 1200 nM
IC50 (A549 parental cells): 416 nM
sensitivity of shRNA targeted H1975 clones compared to parental cells (H1975 66 shUNG cells; H1975 shUNG clones vs parental): > 5 fold
IC50 (H1975 66 shUNG cells; Homo sapiens, NCI-H1975, H1975 66 shUNG, colony survival, read-out: pemetrexed IC50): 131 nM
IC50 (H1975 67 shUNG cells): 146 nM
cells in S phase having low PCNA (H1975 shUNG cells; 6 hours): 3.88±0.93%
cells in S phase having low PCNA (H1975 shUNG cells; 24 hours): 7.81±1.19%
cells in S phase having low PCNA (H1975 wild type cells): less than 1%
relative resistance to pemetrexed compared to parental cells (H1299/PR-1 cells): 25 fold
relative resistance to pemetrexed compared to parental cells (H1299/PR-2 cells): 71 fold
uracil detected in DNA ([1]; UDG−/− cells, drug 10 μM, 6-72 hr): significant amount of uracil
uracil accumulation compared to UNG+/+ controls ([1]; UNG−/− human cancer cells exposed to pemetrexed): up to 40 fold
AP sites in DNA [2]: dose-dependent formation of AP sites
ARP-detected AP sites [3]: increased as the concentration of pemetrexed increased
